Converted amounts (≈) assume the structure as drawn. Read-outs that look alike come from different tables or passages of the source.
Test system: SF162R (resistant strains selected from SF162 against Example 1)
Experiment: Acute infectivity assay in PHA-activated donor lymphocytes, resistant isolate SF162R
Format: cell-based, HIV-1
Settings: Human immunodeficiency virus 1, Lymphocyte
Procedure: Approximately 3×10^7 cells are activated for 48 hours with about 3-5 μg/ml PHA in RPMI continuing 10% fetal bovine serum and IL-2 (10 U/ml). Quantitated virus stocks are added to the activated lymphocyte suspension at a multiplicity of infection of about 0.001-0.01. The cell-virus suspension is incubated at 37° C. for 2 hours to allow virus absorption. The residual virus inoculum is removed by centrifugation and the cells are resuspended in RPMI containing 10% FBS and 10 U/ml IL-2. These infected cells are added to the test-article diluted in complete tissue culture medium from a stock (10 mg/ml) in DMSO in 96 well microtiter plates to give about 5×10^5 cells per well per 200 μl. Infected, untreated cells and cells treated with DMSO alone (0.1%) or either AZT or DDI were used as controls. The cultures were examined for syncytia formation on days 7 and 11 post-infection or the supernants tested for reverse transcriptase activity or p24 antigen.
RF represents the HIV-1 strain HIV-LRF and RFR represents a mixture of resistant strains obtained by selection of RF against the compound of Example 1. RFR comprises a mixture of viral strains having protease genotypes of G48V (14/40 clones); G48V, V82A (18/40 clones); G48V, L90S (2/40 clones); G48V, 154T, V82A (1/40 clones); G48M (1/40 clones); G48V, Q61H (1/40 clones); V13I, G48V (1/40 clones); G48V, F53L, V82A (1/40 clones); and G48V, V82A, C95Y (1/40 clones). RFR2 represents a mixture of resistant strains obtained by cloning RFR by three rounds of growth at limiting dilution. RFR2 comprises a mixture of viral strains having protease genotypes of G48V, V82A (13/15 clones); G17E, G48V, V82A (1/15 clones); and G48V, V82A, N37D, N88D (1/15 clones). RFRR represents a mixture of resistant strains obtained by selection of RF against the compounds of Examples 1 and 2 and then cloning by three rounds of growth at limiting dilution. RFRR comprises a mixture of viral strains having protease genotypes of G48V, 154T, L63P, V82A (7/9 clones); G48V, 154T, L63P, V82A, N88S (1/9 clones); and G48V, 154T, L63P, G73M, V82A (1/9 clones). SF162 represents the HIV-1 strain SF-162 and SF162R represents a mixture of resistant strains obtained by selection of SF162 against the compound of Example 1. SF162R comprises a mixture of viral strains having protease genotypes of M461, F53L, L63P, A71V, N88D (2/3 clones); and M46I, F53L, L63P, A71V, N88D, Q92R (1/3 clones). 89-959 represents the HIV-1 strain 89-959 and 89-959R represents a mixture of resistant strains obtained by selection of 89-959 against the compound of Example 2. 89-959R comprises a mixture of viral strains having protease genotypes of N88S (4/5 clones); and D25N, T26A, D30N, D37N, R41K, G73D, R87K, N88S (1/4 clones). NL4 represents the HIV-1 strain HIV-1NL4-3. NL4(G48V) represents a strain having a synthetically generated site-directed mutation in the protease from glycine to valine at amino acid position number 48. NL4(I84V) represents a strain having a synthetically generated site-directed mutation in the protease from isoleucine to valine at amino acid position number 84. NL4(R8Q,M46I) represents a strain having synthetically generated site-directed mutations in the protease from arginine to glutamine at amino acid position number 8 and methionine to isoleucine at amino acid position number 46. NL4(P22-538) represents a mixture of resistant strains obtained by selection of HIV-1NL4-3 against the compound of Example 10 after 22 passages comprising protease genotypes M46I, L63P, A71V, V82F, I84V (4/10); M46I, L63P, V82F, I84V (3/10); and M46I, A71V, V82F, I84V (3/10). NL4(P37-538) represents resistant strains obtained by selection of HIV-1NL4-3 against the compound of Example 10 after 37 passages comprising protease genotype M46I, L63P, A71V, 184A. NL4(538/524) represents resistant strains obtained by selection of NL4(P22-538) against the compound of Example 5 after 24 passages comprising protease genotype M46I, L63P, A71V, 184A. […]

[1] = Table 1, read-out: Virus Isolate (EC50 ng/mL) SF162R
[2] = Table 2, read-out: Virus Isolate (EC50 ng/mL) SF162R

| Compound | EC50 [1] [ng/mL] | EC50 [2] [ng/mL] |
| --- | --- | --- |
| CC(C)CN(C[C@@H](O)[C@H](Cc1ccccc1)NC(=O)[C@H](CC(N)=O)NC(=O)c1ccc2ccccc2n1)C(=O)NC(C)(C)C (relative stereo) [Example 1, [1S-[1R*(R*),2S*]]-N^1-[3-[[[(1,1-dimethylethyl)amino]carbonyl])2-methylpropyl)amino]-2-hydroxy-1-(phenylmethyl)propyl]-2-[(2-quinolinylcarbonyl)amino]-butanediamide] | 443 (≈ 0.733 µM) | 111 (≈ 0.184 µM) |
| CC(C)CCN(C[C@@H](O)[C@H](Cc1ccccc1)NC(=O)[C@H](CC(N)=O)NC(=O)c1ccc2ccccc2n1)C(=O)NC(C)(C)C (relative stereo) [Example 7, [1S-[1R*(R*),2S*]]-N^1-[3-[[[(1,1-dimethylethyl)amino]carbonyl](3-methylbutyl)amino]-2-hydroxy-1-(phenylmethyl)propyl]-2-[(2-quinolinylcarbonyl)amino]-butanediamide] |  | 108 (≈ 0.175 µM) |
| CC(C)(C)NC(=O)[C@@H]1CC2CCCC[C@@H]2CN1C[C@@H](O)[C@H](Cc1ccccc1)NC(=O)[C@H](CC(N)=O)NC(=O)c1ccc2ccccc2n1 (stereo in doubt) [Example 6, N-tert-Butyl decahydro-2-[2(R)-hydroxy-4-phenyl-3(S)-[[N-(2-quinolylcarbonyl)-L-asparaginyl]amino]butyl]-(4aR,8aS)-isoquinoline-3(S)-carboxamide] | 11 (≈ 0.0164 µM) |  |
| CNCC(=O)N[C@H](C(=O)N[C@@H](Cc1ccccc1)[C@H](O)CN(CCC(C)C)C(=O)NC(C)(C)C)C(C)(C)C [Example 2, (2R,3S)-3-(N-methylaminoacetyl-L-tert-butylglycinyl)amino-1-(N-isoamyl-N-(tert-butylcarbamoyl))amino-4-phenyl-2-butanol] | 6 (≈ 0.0112 µM) |  |
| CC(C)CN(C[C@@H](O)[C@H](Cc1ccccc1)NC(=O)[C@H](CC(N)=O)NC(=O)c1ccc2ccccc2n1)S(=O)(=O)NC(C)(C)C [Example 8, N-[3-[N^2-[N^1-(1,1-dimethylethyl)aminosulfonyl]-N^2-(2-methylpropyl)amino]-2R-hydroxy-1S-(phenylmethyl)propyl]-2S-[(2-quinolinylcarbonyl)amino]butanediamide] |  | 98 (≈ 0.153 µM) |

Source: patent publication US20030207813A1, “Retroviral protease inhibitor combinations” (priority 1995, published 2003)
